Test results taken from PubChem BioAssay (NCI).
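1) Cells in 96-well plates. 2) Compound, 48 h, 5 concentrations. 3) Linear interpolation between surrounding doses. 4) Unreached endpoint = highest concentration. Abbreviation: GI50, concentration required for 50% inhibition of growth. TGI denotes the concentration required for complete inhibition of growth.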

Legend:
Experiment in all cases: NCI tumour cell line growth inhibition, 48 h
OVCAR-5 ovarian = system: OVCAR-5 ovarian
SK-OV-3 ovarian = system: SK-OV-3 ovarian
SF-539 CNS = system: SF-539 CNS
EKVX NSCLC = system: EKVX NSCLC
CAKI-1 renal = system: CAKI-1 renal
SW-620 colon = system: SW-620 colon
UACC-257 melanoma = system: UACC-257 melanoma
KM12 colon = system: KM12 colon
COLO 205 colon = system: COLO 205 colon
NCI-H226 lung = system: NCI-H226 lung
SK-MEL-28 melanoma = system: SK-MEL-28 melanoma
SK-MEL-2 melanoma = system: SK-MEL-2 melanoma
HOP-92 NSCLC = system: HOP-92 NSCLC
OVCAR-8 ovarian = system: OVCAR-8 ovarian
SF-295 CNS = system: SF-295 CNS
PC-3 prostate = system: PC-3 prostate
NCI/ADR-RES ovarian = system: NCI/ADR-RES ovarian
SF-268 CNS = system: SF-268 CNS
ACHN renal = system: ACHN renal
UO-31 renal = system: UO-31 renal
A549 NSCLC = system: A549 NSCLC
HCT-116 colon = system: HCT-116 colon
OVCAR-4 ovarian = system: OVCAR-4 ovarian
LOX IMVI melanoma = system: LOX IMVI melanoma
SR leukemia = system: SR leukemia
HL-60(TB) leukemia = system: HL-60(TB) leukemia
TK-10 renal = system: TK-10 renal
MOLT-4 leukemia = system: MOLT-4 leukemia
HOP-62 NSCLC = system: HOP-62 NSCLC
M14 melanoma = system: M14 melanoma
A498 renal = system: A498 renal
OVCAR-3 ovarian = system: OVCAR-3 ovarian
RPMI-8226 leukemia = system: RPMI-8226 leukemia
NCI-H460 lung = system: NCI-H460 lung
HCT-15 colon = system: HCT-15 colon
MALME-3M melanoma = system: MALME-3M melanoma
NCI-H23 lung = system: NCI-H23 lung
NCI-H522 lung = system: NCI-H522 lung
IGROV1 ovarian = system: IGROV1 ovarian
MCF7 breast = system: MCF7 breast
SK-MEL-5 melanoma = system: SK-MEL-5 melanoma
UACC-62 melanoma = system: UACC-62 melanoma
U251 CNS = system: U251 CNS
RXF 393 renal = system: RXF 393 renal
SN12C renal = system: SN12C renal
HT29 colon = system: HT29 colon
MDA-MB-231 breast = system: MDA-MB-231 breast
K-562 leukemia = system: K-562 leukemia
SNB-75 CNS = system: SNB-75 CNS
CCRF-CEM leukemia = system: CCRF-CEM leukemia
SNB-19 CNS = system: SNB-19 CNS
MDA-MB-435 = system: MDA-MB-435
T-47D breast = system: T-47D breast
HCC-2998 colon = system: HCC-2998 colon
786-0 renal = system: 786-0 renal
HS 578T breast = system: HS 578T breast
BT-549 breast = system: BT-549 breast
DU-145 prostate = system: DU-145 prostate

For `COc1ccc(COc2cc3oc(=O)c4cc(C(C)O)ccc4c3cc2OC)cc1` (centres undefined), the GI50 (OVCAR-5 ovarian) was 41.5 µM, the TGI (OVCAR-5 ovarian) was over 100 µM and the GI50 (SK-OV-3 ovarian) was 13.2 µM. For the same compound, the TGI (SK-OV-3 ovarian) was 45.8 µM, the GI50 (SF-539 CNS) was 9.97 µM and the TGI (SF-539 CNS) was 33 µM. It also gave a GI50 (EKVX NSCLC) of 19.7 µM, a TGI (EKVX NSCLC) of over 100 µM and a GI50 (CAKI-1 renal) of 15.3 µM. It also gave a TGI (CAKI-1 renal) of over 51.1 µM, a GI50 (SW-620 colon) of over 22.4 µM and a TGI (SW-620 colon) of over 100 µM. It also gave a GI50 (UACC-257 melanoma) of 19.7 µM, a TGI (UACC-257 melanoma) of over 74.6 µM and a GI50 (KM12 colon) of 26.2 µM. The TGI (KM12 colon) was over 100 µM, the GI50 (COLO 205 colon) was over 22.7 µM and the TGI (COLO 205 colon) was over 100 µM. It also gave a GI50 (NCI-H226 lung) of 12.3 µM, a TGI (NCI-H226 lung) of 49.8 µM and a GI50 (SK-MEL-28 melanoma) of 14.3 µM. It also gave a TGI (SK-MEL-28 melanoma) of over 91.7 µM, a GI50 (SK-MEL-2 melanoma) of 7.69 µM and a TGI (SK-MEL-2 melanoma) of 30 µM. The GI50 (HOP-92 NSCLC) was 4.22 µM, the TGI (HOP-92 NSCLC) was 33.5 µM and the GI50 (OVCAR-8 ovarian) was 14.8 µM. For the same compound, the TGI (OVCAR-8 ovarian) was 52.2 µM, the GI50 (SF-295 CNS) was 11.6 µM and the TGI (SF-295 CNS) was 65.5 µM. For the same compound, the GI50 (PC-3 prostate) was 14.7 µM, the TGI (PC-3 prostate) was over 100 µM and the GI50 (NCI/ADR-RES ovarian) was 8.4 µM. The TGI (NCI/ADR-RES ovarian) was 44.4 µM, the GI50 (SF-268 CNS) was 9.89 µM and the TGI (SF-268 CNS) was 40.5 µM. The GI50 (ACHN renal) was 23.1 µM, the TGI (ACHN renal) was over 100 µM and the GI50 (UO-31 renal) was 14.7 µM. The TGI (UO-31 renal) was over 100 µM, the GI50 (A549 NSCLC) was 14 µM and the TGI (A549 NSCLC) was over 100 µM. For the same compound, the GI50 (HCT-116 colon) was 13.3 µM, the TGI (HCT-116 colon) was over 100 µM and the GI50 (OVCAR-4 ovarian) was 10.1 µM. The TGI (OVCAR-4 ovarian) was 66.2 µM, the GI50 (LOX IMVI melanoma) was 18.7 µM and the TGI (LOX IMVI melanoma) was over 100 µM. The GI50 (SR leukemia) was 49.7 µM, the TGI (SR leukemia) was over 100 µM and the TGI (HL-60(TB) leukemia) was over 100 µM. For the same compound, the GI50 (TK-10 renal) was 17.4 µM, the TGI (TK-10 renal) was 62.6 µM and the GI50 (MOLT-4 leukemia) was over 23 µM. It also gave a TGI (MOLT-4 leukemia) of over 100 µM, a GI50 (HOP-62 NSCLC) of 8.15 µM and a TGI (HOP-62 NSCLC) of 29.4 µM. The GI50 (M14 melanoma) was over 22.5 µM, the TGI (M14 melanoma) was over 100 µM and the GI50 (A498 renal) was 19.2 µM. For the same compound, the TGI (A498 renal) was 82.2 µM, the GI50 (OVCAR-3 ovarian) was 17.1 µM and the TGI (OVCAR-3 ovarian) was 63.1 µM. For the same compound, the GI50 (RPMI-8226 leukemia) was over 28.8 µM, the TGI (RPMI-8226 leukemia) was over 100 µM and the GI50 (NCI-H460 lung) was 12.6 µM. The TGI (NCI-H460 lung) was over 100 µM, the GI50 (HCT-15 colon) was 12 µM and the TGI (HCT-15 colon) was over 100 µM. For the same compound, the GI50 (MALME-3M melanoma) was 10.2 µM, the TGI (MALME-3M melanoma) was 40.2 µM and the GI50 (NCI-H23 lung) was 16.6 µM. It also gave a TGI (NCI-H23 lung) of over 86.6 µM, a GI50 (NCI-H522 lung) of 10.1 µM and a TGI (NCI-H522 lung) of over 95.3 µM. It also gave a GI50 (IGROV1 ovarian) of 11.5 µM, a TGI (IGROV1 ovarian) of over 83.1 µM and a GI50 (MCF7 breast) of 9.49 µM. It also gave a TGI (MCF7 breast) of over 100 µM, a GI50 (SK-MEL-5 melanoma) of 12.1 µM and a TGI (SK-MEL-5 melanoma) of over 40.7 µM. It also gave a GI50 (UACC-62 melanoma) of 8.47 µM, a TGI (UACC-62 melanoma) of 34 µM and a GI50 (U251 CNS) of 10.5 µM. It also gave a TGI (U251 CNS) of over 71.6 µM, a GI50 (RXF 393 renal) of 5.33 µM and a TGI (RXF 393 renal) of 15.6 µM. For the same compound, the GI50 (SN12C renal) was 21.2 µM, the TGI (SN12C renal) was over 100 µM and the TGI (HT29 colon) was over 100 µM. For the same compound, the GI50 (MDA-MB-231 breast) was 9.6 µM, the TGI (MDA-MB-231 breast) was 97.5 µM and the GI50 (K-562 leukemia) was 73.4 µM. The TGI (K-562 leukemia) was over 100 µM, the GI50 (SNB-75 CNS) was 2.08 µM and the TGI (SNB-75 CNS) was 11.1 µM. The GI50 (CCRF-CEM leukemia) was over 21.6 µM, the TGI (CCRF-CEM leukemia) was over 100 µM and the GI50 (SNB-19 CNS) was 16 µM. The TGI (SNB-19 CNS) was 99.3 µM, the GI50 (MDA-MB-435) was 4.33 µM and the TGI (MDA-MB-435) was over 22.9 µM. It also gave a GI50 (T-47D breast) of 12.7 µM, a TGI (T-47D breast) of over 100 µM and a GI50 (HCC-2998 colon) of over 31.4 µM. It also gave a TGI (HCC-2998 colon) of over 100 µM, a GI50 (786-0 renal) of 13.1 µM and a TGI (786-0 renal) of 56.7 µM. It also gave a GI50 (HS 578T breast) of 8.79 µM, a TGI (HS 578T breast) of over 67.4 µM and a GI50 (BT-549 breast) of 10.1 µM. For the same compound, the TGI (BT-549 breast) was 49.4 µM, the GI50 (DU-145 prostate) was 45.5 µM and the TGI (DU-145 prostate) was over 100 µM.
